Measured values: patent US20260007681A1, “INDOLE DERIVATIVES AS ESTROGEN RECEPTOR DEGRADERS” (REGENTS OF THE UNIVERSITY OF MICHIGAN, priority 2022, published 2026)

target: ER (Homo sapiens (Human), UniProt P03372); assay: Western blot analysis (Compounds B1-B278); format: cell-based; details: ER degradation by traditional Western blot; DC50 classes
Summary of the method: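 Compound-treated cells were lysed in RIPA buffer (Tris.HCl pH 7.6, 1% NP-40, deoxycholate, 0.1% SDS) with protease inhibitors; equal protein was resolved on 10% SDS-PAGE, transferred to PVDF and immunoblotted. Band intensities were quantified and normalized to GAPDH.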

ER, sequence (P03372 whole entry): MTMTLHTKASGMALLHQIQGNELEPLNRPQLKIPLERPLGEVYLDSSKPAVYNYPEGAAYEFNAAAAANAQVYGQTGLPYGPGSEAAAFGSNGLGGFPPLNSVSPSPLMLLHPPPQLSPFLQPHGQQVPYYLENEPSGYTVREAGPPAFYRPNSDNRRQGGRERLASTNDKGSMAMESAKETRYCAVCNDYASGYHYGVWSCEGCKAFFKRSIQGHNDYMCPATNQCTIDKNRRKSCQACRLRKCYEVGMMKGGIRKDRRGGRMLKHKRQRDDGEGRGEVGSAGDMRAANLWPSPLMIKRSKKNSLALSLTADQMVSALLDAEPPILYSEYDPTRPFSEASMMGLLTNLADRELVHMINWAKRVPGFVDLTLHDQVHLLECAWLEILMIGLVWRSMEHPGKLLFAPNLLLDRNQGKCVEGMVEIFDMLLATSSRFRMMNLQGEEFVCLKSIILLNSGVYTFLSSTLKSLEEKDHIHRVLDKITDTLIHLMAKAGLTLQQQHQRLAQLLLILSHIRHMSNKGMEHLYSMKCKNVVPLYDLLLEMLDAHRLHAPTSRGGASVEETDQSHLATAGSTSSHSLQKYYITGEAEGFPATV

Traditional Western Degradation Potency | Structure (SMILES)
C (“C”: >100 nM) | C[C@@H]1Cc2c([nH]c3ccccc23)[C@H](c2c(F)cc(CN3CCC4(CCC(CN5Cc6cc7c(cc6C5)C(=O)N(C5CCC(=O)NC5=O)C7=O)CC4)CC3)cc2F)N1CC(F)F (stereo partly drawn) [Compound B102, 6-((3-(4-((1S,3R)-2-(2,2-difluoroethyl)-3-methyl-2,3,4,9-tetrahydro-1H-pyrido[3,4-b]indol-1-yl)-3,5-difluorobenzyl)-3-azaspiro[5.5]undecan-9-yl)methyl)-2-(2,6-dioxopiperidin-3-yl)-6,7-dihydropyrrolo[3,4-f]isoindole-1,3(2H,5H)-dione]
C (“C”: >100 nM) | C[C@@H]1Cc2c([nH]c3ccccc23)[C@@H](c2c(F)cc(N3CC4(CCCN(C(=O)CN5Cc6cc7c(cc6C5)C(=O)N(C5CCC(=O)NC5=O)C7)C4)C3)cc2F)N1CC(F)F (stereo partly drawn) [Compound B12, 3-(6-(2-(2-(4-((1R,3R)-2-(2,2-difluoroethyl)-3-methyl-2,3,4,9-tetrahydro-1H-pyrido[3,4-b]indol-1-yl)-3,5-difluorophenyl)-2,6-diazaspiro[3.5]nonan-6-yl)-2-oxoethyl)-1-oxo-3,5,6,7-tetrahydropyrrolo[3,4-f]isoindol-2(1H)-yl)piperidine-2,6-dione]
A (“A”: <10 nM) | C[C@@H]1Cc2c([nH]c3ccccc23)[C@@H](c2cnc(N3CCC4(CC3)CN(C(=O)CN3Cc5cc6c(cc5C3)C(=O)N(C3CCC(=O)NC3=O)C6=O)C4)nc2)N1CC(F)(F)F (stereo partly drawn) [Compound B217, 2-(2,6-dioxopiperidin-3-yl)-6-(2-(7-(5-((1R,3R)-3-methyl-2-(2,2,2-trifluoroethyl)-2,3,4,9-tetrahydro-1H-pyrido[3,4-b]indol-1-yl)pyrimidin-2-yl)-2,7-diazaspiro[3.5]nonan-2-yl)-2-oxoethyl)-6,7-dihydropyrrolo[3,4-f]isoindole-1,3(2H,5H)-dione]
C (“C”: >100 nM) | C[C@@H]1Cc2c([nH]c3ccccc23)[C@@H](c2ncc(C3=CCC(C(=O)N4CCC(N5Cc6cc7c(cc6C5)C(=O)N(C5CCC(=O)NC5=O)C7=O)CC4)CC3)cc2F)N1CC(C)(F)F (stereo partly drawn) [Compound B247, 6-(1-(4-(6-((1S,3R)-2-(2,2-difluoropropyl)-3-methyl-2,3,4,9-tetrahydro-1H-pyrido[3,4-b]indol-1-yl)-5-fluoropyridin-3-yl)cyclohex-3-ene-1-carbonyl)piperidin-4-yl)-2-(2,6-dioxopiperidin-3-yl)-6,7-dihydropyrrolo[3,4-f]isoindole-1,3(2H,5H)-dione]
B (“B”: 10-100 nM) | C[C@@H]1Cc2c([nH]c3ccccc23)[C@@H](c2ccc(C3CCC(C(=O)N4CCC(N5Cc6cc7c(cc6C5)C(=O)N(C5CCC(=O)NC5=O)C7=O)CC4)CC3)c(F)c2)N1CC(F)F (stereo partly drawn) [Compound B239, 6-(1-(4-(4-((1R,3R)-2-(2,2-difluoroethyl)-3-methyl-2,3,4,9-tetrahydro-1H-pyrido[3,4-b]indol-1-yl)-2-fluorophenyl)cyclohexane-1-carbonyl)piperidin-4-yl)-2-(2,6-dioxopiperidin-3-yl)-6,7-dihydropyrrolo[3,4-f]isoindole-1,3(2H,5H)-dione]
A (“A”: <10 nM) | C[C@@H]1Cc2c([nH]c3ccccc23)[C@@H](c2c(F)cc(N3CC4(CC(C(=O)N5CCC(CN6Cc7cc8c(cc7C6)C(=O)N(C6CCC(=O)NC6=O)C8=O)CC5)C4)C3)cc2F)N1CC(F)F (stereo partly drawn) [Compound B55, 6-((1-(2-(4-((1R,3R)-2-(2,2-difluoroethyl)-3-methyl-2,3,4,9-tetrahydro-1H-pyrido[3,4-b]indol-1-yl)-3,5-difluorophenyl)-2-azaspiro[3.3]heptane-6-carbonyl)piperidin-4-yl)methyl)-2-(2,6-dioxopiperidin-3-yl)-6,7-dihydropyrrolo[3,4-f]isoindole-1,3(2H,5H)-dione]
C (“C”: >100 nM) | C[C@@H]1Cc2c([nH]c3ccccc23)[C@@H](c2ccc(N3CCC4(CCN(C(=O)CN5Cc6cc7c(cc6C5)C(=O)N(C5CCC(=O)NC5=O)C7=O)CC4)CC3)cn2)N1CC(F)F (stereo partly drawn) [Compound B228, 6-(2-(9-(6-((1S,3R)-2-(2,2-difluoroethyl)-3-methyl-2,3,4,9-tetrahydro-1H-pyrido[3,4-b]indol-1-yl)pyridin-3-yl)-3,9-diazaspiro[5.5]undecan-3-yl)-2-oxoethyl)-2-(2,6-dioxopiperidin-3-yl)-6,7-dihydropyrrolo[3,4-f]isoindole-1,3(2H,5H)-dione]
A (“A”: <10 nM) | C[C@@H]1Cc2c([nH]c3ccccc23)[C@@H](c2c(F)cc(N3CCC(C(=O)N4CCC(N5Cc6cc7c(cc6C5)C(=O)N(C5CCC(=O)NC5=O)C7=O)CC4)CC3)cc2F)N1CC(F)F (stereo partly drawn) [Compound B54, 6-(1-(1-(4-((1R,3R)-2-(2,2-difluoroethyl)-3-methyl-2,3,4,9-tetrahydro-1H-pyrido[3,4-b]indol-1-yl)-3,5-difluorophenyl)piperidine-4-carbonyl)piperidin-4-yl)-2-(2,6-dioxopiperidin-3-yl)-6,7-dihydropyrrolo[3,4-f]isoindole-1,3(2H,5H)-dione]
B (“B”: 10-100 nM) | C[C@@H]1Cc2c([nH]c3ccccc23)[C@@H](c2cnc(C3=CCC(C(=O)N4CCC(N5Cc6cc7c(cc6C5)C(=O)N(C5CCC(=O)NC5=O)C7=O)CC4)CC3)nc2)N1CC(F)F (stereo partly drawn) [Compound B236, 6-(1-(4-(5-((1R,3R)-2-(2,2-difluoroethyl)-3-methyl-2,3,4,9-tetrahydro-1H-pyrido[3,4-b]indol-1-yl)pyrimidin-2-yl)cyclohex-3-ene-1-carbonyl)piperidin-4-yl)-2-(2,6-dioxopiperidin-3-yl)-6,7-dihydropyrrolo[3,4-f]isoindole-1,3(2H,5H)-dione]
C (“C”: >100 nM) | C[C@@H]1Cc2c([nH]c3ccccc23)[C@@H](c2c(F)cc(C3CCC4(CC3)CCN(C(=O)CN3Cc5cc6c(cc5C3)C(=O)N(C3CCC(=O)NC3=O)C6=O)CC4)cc2F)N1CC(F)F (stereo partly drawn) [Compound B244, 6-(2-(9-(4-((1R,3R)-2-(2,2-difluoroethyl)-3-methyl-2,3,4,9-tetrahydro-1H-pyrido[3,4-b]indol-1-yl)-3,5-difluorophenyl)-3-azaspiro[5.5]undecan-3-yl)-2-oxoethyl)-2-(2,6-dioxopiperidin-3-yl)-6,7-dihydropyrrolo[3,4-f]isoindole-1,3(2H,5H)-dione]
B (“B”: 10-100 nM) | C[C@@H]1Cc2c([nH]c3ccccc23)[C@@H](c2ccc(N3CCC4(CC3)CN(C(=O)CN3Cc5cc6c(cc5C3)C(=O)N(C3CCC(=O)NC3=O)C6=O)C4)cc2)N1CC(F)F (stereo partly drawn) [Compound B224, 6-(2-(7-(4-((1R,3R)-2-(2,2-difluoroethyl)-3-methyl-2,3,4,9-tetrahydro-1H-pyrido[3,4-b]indol-1-yl)phenyl)-2,7-diazaspiro[3.5]nonan-2-yl)-2-oxoethyl)-2-(2,6-dioxopiperidin-3-yl)-6,7-dihydropyrrolo[3,4-f]isoindole-1,3(2H,5H)-dione]
C (“C”: >100 nM) | COc1cc(C2CCC(C(=O)N3CCC(N4Cc5cc6c(cc5C4)C(=O)N(C4CCC(=O)NC4=O)C6=O)CC3)CC2)cnc1[C@@H]1c2[nH]c3ccccc3c2C[C@@H](C)N1CC(F)F (stereo partly drawn) [Compound B115, 6-(1-(4-(6-((1S,3R)-2-(2,2-difluoroethyl)-3-methyl-2,3,4,9-tetrahydro-1H-pyrido[3,4-b]indol-1-yl)-5-methoxypyridin-3-yl)cyclohexane-1-carbonyl)piperidin-4-yl)-2-(2,6-dioxopiperidin-3-yl)-6,7-dihydropyrrolo[3,4-f]isoindole-1,3(2H,5H)-dione]
A (“A”: <10 nM) | C[C@@H]1Cc2c([nH]c3ccccc23)[C@@H](c2cnc(N3CCC(C(=O)N4CCC(N5Cc6cc7c(cc6C5)C(=O)N(C5CCC(=O)NC5=O)C7=O)CC4)CC3)nc2)N1CC(F)(F)F (stereo partly drawn) [Compound B219, 2-(2,6-dioxopiperidin-3-yl)-6-(1-(1-(5-((1R,3R)-3-methyl-2-(2,2,2-trifluoroethyl)-2,3,4,9-tetrahydro-1H-pyrido[3,4-b]indol-1-yl)pyrimidin-2-yl)piperidine-4-carbonyl)piperidin-4-yl)-6,7-dihydropyrrolo[3,4-f]isoindole-1,3(2H,5H)-dione]
B (“B”: 10-100 nM) | C[C@@H]1Cc2c([nH]c3ccccc23)[C@@H](c2ccc(N3CCC(CN4CCC(N5Cc6cc7c(cc6C5)C(=O)N(C5CCC(=O)NC5=O)C7=O)CC4)CC3)cc2)N1CC(F)F (stereo partly drawn) [Compound B226, 6-(1-((1-(4-((1R,3R)-2-(2,2-difluoroethyl)-3-methyl-2,3,4,9-tetrahydro-1H-pyrido[3,4-b]indol-1-yl)phenyl)piperidin-4-yl)methyl)piperidin-4-yl)-2-(2,6-dioxopiperidin-3-yl)-6,7-dihydropyrrolo[3,4-f]isoindole-1,3(2H,5H)-dione]
A (“A”: <10 nM) | C[C@@H]1Cc2c([nH]c3ccccc23)[C@@H](c2c(F)cc(C3CCC(C(=O)N4CC(CN5Cc6cc7c(cc6C5)C(=O)N(C5CCC(=O)NC5=O)C7=O)C4)CC3)cc2F)N1CC(F)F (stereo partly drawn) [Compound B81, 6-((1-(4-(4-((1R,3R)-2-(2,2-difluoroethyl)-3-methyl-2,3,4,9-tetrahydro-1H-pyrido[3,4-b]indol-1-yl)-3,5-difluorophenyl)cyclohexane-1-carbonyl)azetidin-3-yl)methyl)-2-(2,6-dioxopiperidin-3-yl)-6,7-dihydropyrrolo[3,4-f]isoindole-1,3(2H,5H)-dione]
B (“B”: 10-100 nM) | C[C@@H]1Cc2c([nH]c3ccccc23)[C@@H](c2cnc(N3CCC(CN4CCC(N5Cc6cc7c(cc6C5)C(=O)N(C5CCC(=O)NC5=O)C7=O)CC4)CC3)nc2)N1CC(F)(F)F (stereo partly drawn) [Compound B218, 2-(2,6-dioxopiperidin-3-yl)-6-(1-((1-(5-((1R,3R)-3-methyl-2-(2,2,2-trifluoroethyl)-2,3,4,9-tetrahydro-1H-pyrido[3,4-b]indol-1-yl)pyrimidin-2-yl)piperidin-4-yl)methyl)piperidin-4-yl)-6,7-dihydropyrrolo[3,4-f]isoindole-1,3(2H,5H)-dione]
